Read-outs that look alike come from different tables or passages of the source.
Target: T1, nitrile hydratase (Pseudomonas chlororaphis, UniProt P27763+P27764)
T1 sequence (P27764 1-200): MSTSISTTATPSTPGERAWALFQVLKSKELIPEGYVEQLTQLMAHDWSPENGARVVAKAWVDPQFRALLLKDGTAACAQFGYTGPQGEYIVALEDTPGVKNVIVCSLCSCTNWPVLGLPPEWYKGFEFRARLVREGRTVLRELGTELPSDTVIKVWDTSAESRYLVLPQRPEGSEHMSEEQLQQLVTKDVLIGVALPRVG
T1 sequence (P27763 1-220): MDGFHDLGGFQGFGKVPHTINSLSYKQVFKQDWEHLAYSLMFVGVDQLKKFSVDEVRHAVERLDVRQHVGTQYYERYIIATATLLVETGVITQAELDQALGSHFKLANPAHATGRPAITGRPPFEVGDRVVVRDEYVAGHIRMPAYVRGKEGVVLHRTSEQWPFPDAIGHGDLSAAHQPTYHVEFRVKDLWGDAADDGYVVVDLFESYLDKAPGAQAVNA
Assay: Preservation of nitrile hydration activity of washed cell suspension left standing ice-cooled with stabilizer
Format: cell-based, Pseudomonas chlororaphis B23 (FERM BP-187)

[1] = 120 h; Table 1; 10 mg nitrile in 5 ml cell suspension, pH 6.5, left standing 5 days ice-cooled; no stabilizer: 42; read-out: % Residual Activity
[2] = 120 h, pH 6, read-out: % Residual Activity
[3] = 120 h; Table 2; 10 mg amide in 5 ml cell suspension, pH 6.5, left standing 5 days ice-cooled; no stabilizer: 42; read-out: % Residual Activity
[4] = 120 h; Table 3; 10 mg organic acid in 5 ml cell suspension, pH 6.0, left standing 5 days ice-cooled; no stabilizer: 43; read-out: % Residual Activity

SMILES: N#CCC(=O)O [Cyanoacetic acid]
- activity at 10 mg [1]: 69%

SMILES: CCC(=O)O [Propionic acid]
- activity at 10 mg [2]: 93%

SMILES: NCCC(=O)O [β-Aminopropionic acid]
- activity at 10 mg [2]: 71%

SMILES: CC(O)C(N)=O (stereo not drawn) [Lactamide]
- activity at 10 mg [3]: 70%

SMILES: N#CCCl [Chloroacetonitrile]
- activity at 10 mg [1]: 77%

SMILES: O=C(O)CC(O)(CC(=O)O)C(=O)O [Citric acid]
- activity at 10 mg [4]: 77%

SMILES: C=C(C)C(N)=O [Methacrylamide]
- activity at 10 mg [3]: 79%

SMILES: O=C(O)CC(=O)O [Malonic acid]
- activity at 10 mg [4]: 63%

SMILES: NC(=O)CC(N)=O [Malondiamide]
- activity at 10 mg [3]: 66%

SMILES: N#Cc1ccccc1 [Benzonitrile]
- activity at 10 mg [1]: 70%

SMILES: N#CCCCl [β-Chloropropionitrile]
- activity at 10 mg [1]: 80%

SMILES: O=C(O)c1ccccc1 [Benzoic acid]
- activity at 10 mg [4]: 68%

SMILES: NC(=O)CCO [β-Hydroxypropionamide]
- activity at 10 mg [3]: 74%

SMILES: N#CCCO [β-Hydroxypropionitrile]
- activity at 10 mg [1]: 84%

SMILES: N#CCC(N)=O [Cyanoacetamide]
- activity at 10 mg [1]: 75%

SMILES: NC(=O)c1ccccc1 [Benzamide]
- activity at 10 mg [3]: 65%

SMILES: CCC#N [Propionitrile]
- activity at 10 mg [1]: 90%

SMILES: NC(=O)CCCl [β-Chloropropionamide]
- activity at 10 mg [3]: 71%

SMILES: NC(=O)CCC(N)=O [Succindiamide]
- activity at 10 mg [3]: 68%

SMILES: O=C(O)CCC(=O)O [Succinic acid]
- activity at 10 mg [2]: 80%

SMILES: O=C(O)CC(=O)C(=O)O [Oxalacetic acid]
- activity at 10 mg [4]: 83%

SMILES: N#CCC#N [Malononitrile]
- activity at 10 mg (120 h, pH 6.5; read-out: % Residual Activity): 69%

SMILES: NCCC(N)=O [β-Aminopropionamide]
- activity at 10 mg [3]: 68%

SMILES: CCCCC(=O)O [Valeric acid]
- activity at 10 mg [2]: 84%

SMILES: CC(C)C(N)=O [Isobutyramide]
- activity at 25 mg (96 h, pH 7, read-out: % Residual Activity): 78%
- activity at 25 mg (96 h; Table 4; pH 5.0, 25 mg stabilizer in 5 ml, 4 days ice-cooled; no stabilizer: 2; read-out: % Residual Activity): 3%
- activity at 25 mg (96 h; Table 4; pH 5.5, 25 mg stabilizer in 5 ml, 4 days ice-cooled; no stabilizer: 32; read-out: % Residual Activity): 100%
- activity at 25 mg (96 h; Table 4; pH 6.0, 25 mg stabilizer in 5 ml, 4 days ice-cooled; no stabilizer: 41; read-out: % Residual Activity): 100%
- activity at 25 mg (96 h; Table 4; pH 6.5, 25 mg stabilizer in 5 ml, 4 days ice-cooled; no stabilizer: 52; read-out: % Residual Activity): 87%
- activity at 25 mg (96 h; Table 4; pH 8.0, 25 mg stabilizer in 5 ml, 4 days ice-cooled; no stabilizer: 26; read-out: % Residual Activity): 52%
- activity at 10 mg (120 h, pH 6.5, read-out: % Residual Activity): 99%
- remaining activity at 10 µg/mL (Table 5; stabilizer concentration 0.01 g/l, pH 6.0, 3 days ice-cooled; no stabilizer (pH 6.5): 52; read-out: % Residual Activity): 82%
- remaining activity at 100 µg/mL (Table 5; stabilizer concentration 0.1 g/l, pH 6.0, 3 days ice-cooled; read-out: % Residual Activity): 88%
- remaining activity at 1000 µg/mL (Table 5; stabilizer concentration 1.0 g/l, pH 6.0, 3 days ice-cooled; read-out: % Residual Activity): 100%
- remaining activity at 5000 µg/mL (Table 5; stabilizer concentration 5.0 g/l, pH 6.0, 3 days ice-cooled; read-out: % Residual Activity): 100%
- remaining activity at 20000 µg/mL (Table 5; stabilizer concentration 20 g/l, pH 6.0, 3 days ice-cooled; read-out: % Residual Activity): 100%
- remaining activity at 50000 µg/mL (Table 5; stabilizer concentration 50 g/l, pH 6.0, 3 days ice-cooled; read-out: % Residual Activity): 90%

SMILES: O=C(O)/C=C/C(=O)O [Fumaric acid]
- activity at 10 mg [2]: 82%

SMILES: CCCCCC#N [n-Capronitrile]
- activity at 10 mg [1]: 89%

SMILES: N#Cc1cccnc1 [Nicotinonitrile]
- activity at 10 mg [1]: 73%

SMILES: CCCC#N [n-Butyronitrile]
- activity at 10 mg [1]: 88%

SMILES: CC(=O)O [Acetic acid]
- activity at 10 mg [2]: 77%

From US4900672A, “Method for preservation of nitrile hydration activity” (Nitto Kagaku Kogyo Kabushiki Kaisha, priority 1986, dated 1990)
